Here are results for eleven molecules from patent publication US20090198069A1, “METAL COMPLEX, LIGHT-EMITTING DEVICE AND DISPLAY” (NAGASAKI UNIVERSITY, NATIONAL UNIVERSITY CORPORATI, priority 2005, published 2009).

The nature of this data set: Solubility in a solvent (qualitative). In kind it is physicochemical.
Where [1] appears, read: dichloromethane (methylene chloride).

Each structure is given as a SMILES string.

On to `Cc1cc[n+]2[n]1[Pt-2]13[n]4c(C)cc[n+]4[Ag-][n]4ccc(C)[n+]4[Pt-2]([n]4c(C)cc[n+]4[Ag-][n]4ccc(C)[n+]41)([n]1c(C)cc[n+]1[Ag-][n]1ccc(C)[n+]13)[n+]1c(C)cc[n]1[Ag-]2` [[Pt2Ag4(μ-3-Mepz)8]], for which the “solubility in a solvent” value is “slightly soluble” (acetonitrile); “slightly soluble” (benzene); “soluble” (chloroform); “soluble” under setting [1]; “slightly soluble” (toluene).

For `CC(C)(C)c1cc[n+]2[n]1[Ag-][n+]1c(C(C)(C)C)cc[n]1[Pt-2]13[n]4ccc(C(C)(C)C)[n+]4[Ag-][n]4c(C(C)(C)C)cc[n+]4[Pt-2]2([n]2ccc(C(C)(C)C)[n+]2[Ag-][n]2c(C(C)(C)C)cc[n+]21)[n]1ccc(C(C)(C)C)[n+]1[Ag-][n]1c(C(C)(C)C)cc[n+]13` [[Pt2Ag4(μ-3-^tBupz)8]], the “solubility in a solvent” value (chloroform) is “readily soluble” and the “solubility in a solvent” value under setting [1] is listed as “readily soluble”.

With `c1ccc(-c2cc(-c3ccccc3)[n+]3[n]2[Pt-2]24[Cl+][Ag-][n]5c(-c6ccccc6)cc(-c6ccccc6)[n+]5[Pt-2]([Cl+][Ag-][n]5c(-c6ccccc6)cc(-c6ccccc6)[n+]52)([n]2c(-c5ccccc5)cc(-c5ccccc5)[n+]2[Ag-][n]2c(-c5ccccc5)cc(-c5ccccc5)[n+]24)[n+]2c(-c4ccccc4)cc(-c4ccccc4)[n]2[Ag-]3)cc1` [[Pt2Ag4(μ-Cl)2(μ-dppz)6]], the “solubility in a solvent” value runs as follows: (acetonitrile) “slightly soluble”; (benzene) “soluble”; (chloroform) “readily soluble”; under setting [1], “readily soluble”; (toluene) “soluble”.

`Cc1cc(C)[n+]2[n]1[Pt-2]13[n]4c(C)cc(C)[n+]4[Ag-][n]4c(C)cc(C)[n+]4[Pt-2]([n]4c(C)cc(C)[n+]4[Ag-][n]4c(C)cc(C)[n+]41)([n]1c(C)cc(C)[n+]1[Ag-][n]1c(C)cc(C)[n+]13)[n+]1c(C)cc(C)[n]1[Ag-]2` [[Pt2Ag4(μ-dmpz)8]]: the “solubility in a solvent” value is, setting by setting: (acetone) “not soluble”; (acetonitrile) “moderately soluble”; (benzene) “highly soluble”; (chloroform) “extremely highly soluble”; under setting [1], “extremely highly soluble”; (hexane) “moderately soluble”. In addition, the “solubility in a solvent” value is “not soluble” (methanol) and “highly soluble” (toluene).

Consider `CC(C)(C)c1cc[n+]2[n]1[Cu-][n+]1c(C(C)(C)C)cc[n]1[Pt-2]13[n]4ccc(C(C)(C)C)[n+]4[Cu-][n]4c(C(C)(C)C)cc[n+]4[Pt-2]2([n]2ccc(C(C)(C)C)[n+]2[Cu-][n]2c(C(C)(C)C)cc[n+]21)[n]1ccc(C(C)(C)C)[n+]1[Cu-][n]1c(C(C)(C)C)cc[n+]13` [[Pt2Cu4(μ-3-^tBupz)8]], for which the “solubility in a solvent” value (chloroform) is listed as “soluble” and the “solubility in a solvent” value under setting [1] is listed as “soluble”.

Turning to `Cc1cc(C)[n+]2[n]1[Pt-2]13[n]4c(C)cc(C)[n+]4[Cu-][n]4c(C)cc(C)[n+]4[Pt-2]([n]4c(C)cc(C)[n+]4[Cu-][n]4c(C)cc(C)[n+]41)([n]1c(C)cc(C)[n+]1[Cu-][n]1c(C)cc(C)[n+]13)[n+]1c(C)cc(C)[n]1[Cu-]2` [[Pt2Cu4(μ-dmpz)8]], the “solubility in a solvent” value is listed as “slightly soluble” (acetone); “poorly soluble” (acetonitrile); “soluble” (chloroform); “soluble” under setting [1]; “slightly soluble” (diethyl ether); “poorly soluble” (methanol). Moreover, the “solubility in a solvent” value (toluene) is “poorly soluble”.

Take `CC(C)(C)c1cc[n-]n1.CC(C)(C)c1cc[n-]n1.CC(C)(C)c1cc[nH]n1.CC(C)(C)c1cc[nH]n1.[Pt+2]` [[Pt(3-^tBupz)2(3-^tBupzH)2]]: the “solubility in a solvent” value is “soluble” (acetone); “readily soluble” (chloroform); “readily soluble” under setting [1]; “soluble” (hexane); “soluble” (methanol).

On to `CC(C)(C)c1ccn[nH]1.CC(C)(C)c1ccn[nH]1.CC(C)(C)c1ccn[nH]1.CC(C)(C)c1ccn[nH]1.[Cl-].[Cl-].[Pt+2]` [[Pt(3-^tBupzH)4]Cl2], for which the “solubility in a solvent” value is, setting by setting: (chloroform) “readily soluble”; under setting [1], “readily soluble”; (methanol) “soluble”; (toluene) “soluble”.

In the case of `[Cl][Pt-2]([n]1nc(-c2ccccc2)cc1-c1ccccc1)([n+]1[nH]c(-c2ccccc2)cc1-c1ccccc1)[n+]1[nH]c(-c2ccccc2)cc1-c1ccccc1` [[PtCl(dppz)(dppzH)2]], the “solubility in a solvent” value is recorded as “readily soluble” (acetone); “soluble” (acetonitrile); “soluble” (benzene); “readily soluble” (chloroform); “readily soluble” under setting [1]; “soluble” (toluene).

In the case of `Cc1ccn[n]1[Pt-2]([n]1nccc1C)([n+]1[nH]ccc1C)[n+]1[nH]ccc1C.Cc1ccn[n]1[Pt-2]([n]1nccc1C)([n+]1[nH]ccc1C)[n+]1[nH]ccc1C` [[{Pt(3-Mepz)2(3-MepzH)2}2]], the “solubility in a solvent” value is “soluble” (benzene); “readily soluble” (chloroform); “readily soluble” under setting [1]; “soluble” (diethyl ether); “soluble” (toluene).

As to `Cc1cc(C)[n]([Pt-2]([n]2nc(C)cc2C)([n+]2[nH]c(C)cc2C)[n+]2[nH]c(C)cc2C)n1.Cc1cc(C)[n]([Pt-2]([n]2nc(C)cc2C)([n+]2[nH]c(C)cc2C)[n+]2[nH]c(C)cc2C)n1` [[{Pt(dmpz)2(dmpzH)2}2]], the “solubility in a solvent” value runs as follows: (acetone) “not soluble”; (acetonitrile) “moderately soluble”; (benzene) “highly soluble”; (chloroform) “extremely highly soluble”; under setting [1], “extremely highly soluble”; (diethyl ether) “moderately soluble”. The “solubility in a solvent” value is, setting by setting: (methanol) “not soluble”; (toluene) “highly soluble”; (water) “not soluble”.
